The source made the active and inactive calls. The calls are words filed in the database; no cut-off is given here.
Legend:
[1] = target: T1, Poly [ADP-ribose] polymerase 1 (Homo sapiens, UniProt P09874); assay: Inhibition of human recombinant PARP1 expressed in Escherichia coli BL21(DE3) incubated for 1 hr by ELISA assay
[2] = system: MX1; assay: Cytotoxicity against human MX1 cells […] assessed as inhibition of cell growth measured after 72 hrs by MTT assay; assay type: functional, cell-based; conditions: MX1, 72 h
[3] = system: MX1; assay: Potentiation factor, ratio of IC50 for cytotoxicity against human MX1 cells to IC50 for cytotoxicity against human MX1 cells in presence of temozolomide; assay type: functional
[4] = target: Poly [ADP-ribose] polymerase 2 (Homo sapiens, UniProt Q9UGN5); assay: Inhibition of human recombinant PARP2 expressed in Escherichia coli BL21(DE3) incubated for 1 hr by ELISA assay
Poly [ADP-ribose] polymerase 2, sequence (Q9UGN5 whole entry): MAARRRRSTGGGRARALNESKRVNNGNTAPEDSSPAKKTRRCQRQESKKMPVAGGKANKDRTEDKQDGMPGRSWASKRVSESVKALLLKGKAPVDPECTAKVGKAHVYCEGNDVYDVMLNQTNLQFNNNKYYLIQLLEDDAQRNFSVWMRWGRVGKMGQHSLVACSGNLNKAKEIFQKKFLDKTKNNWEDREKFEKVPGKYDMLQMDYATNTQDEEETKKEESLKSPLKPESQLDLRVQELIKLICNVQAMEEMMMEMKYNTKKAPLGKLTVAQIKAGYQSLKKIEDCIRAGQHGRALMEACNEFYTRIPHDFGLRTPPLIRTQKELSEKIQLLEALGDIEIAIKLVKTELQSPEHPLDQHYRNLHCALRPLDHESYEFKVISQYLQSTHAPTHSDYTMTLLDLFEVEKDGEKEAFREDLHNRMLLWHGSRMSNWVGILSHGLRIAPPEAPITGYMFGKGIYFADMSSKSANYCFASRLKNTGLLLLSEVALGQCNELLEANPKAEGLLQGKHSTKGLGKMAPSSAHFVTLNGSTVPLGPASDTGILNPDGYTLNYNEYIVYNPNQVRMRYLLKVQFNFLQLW

[5] = target: T1, Poly [ADP-ribose] polymerase 1; assay: Inhibition of human PARP1 in human MX1 cells assessed as enzyme-DNA trapping activity at 1 uM incubated for 24 hrs by Western blot analysis; assay type: cell-based

T1 sequence (P09874 whole entry): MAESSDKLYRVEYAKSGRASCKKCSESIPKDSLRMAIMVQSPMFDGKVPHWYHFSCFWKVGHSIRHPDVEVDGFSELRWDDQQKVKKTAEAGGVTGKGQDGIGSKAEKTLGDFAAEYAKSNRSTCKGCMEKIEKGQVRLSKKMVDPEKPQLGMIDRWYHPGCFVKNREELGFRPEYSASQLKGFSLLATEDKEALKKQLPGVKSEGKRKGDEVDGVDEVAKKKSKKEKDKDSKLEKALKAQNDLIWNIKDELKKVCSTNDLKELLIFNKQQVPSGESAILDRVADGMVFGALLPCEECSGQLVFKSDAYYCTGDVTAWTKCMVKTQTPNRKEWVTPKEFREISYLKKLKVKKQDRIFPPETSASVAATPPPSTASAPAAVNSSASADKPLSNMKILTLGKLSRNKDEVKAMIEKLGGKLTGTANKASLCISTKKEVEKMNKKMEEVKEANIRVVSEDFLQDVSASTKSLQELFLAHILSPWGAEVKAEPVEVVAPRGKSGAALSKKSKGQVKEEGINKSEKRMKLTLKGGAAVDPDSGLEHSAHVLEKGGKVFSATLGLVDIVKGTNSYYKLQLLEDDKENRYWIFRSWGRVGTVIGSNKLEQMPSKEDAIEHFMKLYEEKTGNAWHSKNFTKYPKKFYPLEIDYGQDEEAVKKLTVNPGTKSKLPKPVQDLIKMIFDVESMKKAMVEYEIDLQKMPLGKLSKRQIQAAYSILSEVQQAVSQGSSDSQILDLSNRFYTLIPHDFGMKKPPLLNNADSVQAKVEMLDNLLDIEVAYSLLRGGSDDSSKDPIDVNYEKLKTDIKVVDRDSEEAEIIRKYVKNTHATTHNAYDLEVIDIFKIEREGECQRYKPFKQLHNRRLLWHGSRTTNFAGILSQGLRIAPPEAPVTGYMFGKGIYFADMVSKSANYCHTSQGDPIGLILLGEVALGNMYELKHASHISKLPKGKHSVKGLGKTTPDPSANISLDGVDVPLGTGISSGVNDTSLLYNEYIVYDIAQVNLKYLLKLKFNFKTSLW

O=C1CN(C(=O)c2cc(Cn3c(=O)[nH]c(=O)c4ccccc43)ccc2F)CCN1CCCO
IC50 [1]: 17.1 nM | IC50 [2]: 60.2 nM | PF50 [3]: 4.38 | IC50 [4]: 6.31 nM

CCN1CCN(C(=O)c2cc(Cn3c(=O)[nH]c(=O)c4ccccc43)ccc2F)CC1=O
IC50 [1]: 7.59 nM | IC50 [2]: 23.3 nM | PF50 [3]: >10 | IC50 [4]: 1.22 nM

COC(=O)CN1CCN(C(=O)c2cc(Cn3c(=O)[nH]c(=O)c4ccccc43)ccc2F)CC1=O
IC50 [1]: 8.88 nM | IC50 [2]: 45 nM | PF50 [3]: 4.64 | IC50 [4]: 2.67 nM

O=C1CN(C(=O)c2cc(Cn3c(=O)[nH]c(=O)c4ccccc43)ccc2F)CCN1CC1CCCC1
PARP1-DNA trapping activity [5]: Active | IC50 [1]: 2.46 nM | IC50 [2]: 23.2 nM | PF50 [3]: >10 | IC50 [4]: 0.1 nM

COCCN1CCN(C(=O)c2cc(Cn3c(=O)[nH]c(=O)c4ccccc43)ccc2F)CC1=O
PARP1-DNA trapping activity [5]: Active | IC50 [1]: 4.86 nM | IC50 [2]: 61.3 nM | IC50 [4]: 0.83 nM

CCCCN1CCN(C(=O)c2cc(Cn3c(=O)[nH]c(=O)c4ccccc43)ccc2F)CC1=O
IC50 [1]: 2.72 nM | IC50 [2]: 20 nM | PF50 [3]: >10 | IC50 [4]: 0.49 nM

CC(C)C(C)N1CCN(C(=O)c2cc(Cn3c(=O)[nH]c(=O)c4ccccc43)ccc2F)CC1=O (configuration not stated)
PARP1-DNA trapping activity [5]: Active | IC50 [1]: 9 nM | IC50 [2]: 1.67 nM | PF50 [3]: >10 | IC50 [4]: 1.86 nM

O=C1CN(C(=O)c2cc(Cn3c(=O)[nH]c(=O)c4ccccc43)ccc2F)CCN1CCC1CC1
PARP1-DNA trapping activity [5]: Active | IC50 [1]: 2.08 nM | IC50 [2]: 4.15 nM | PF50 [3]: >10 | IC50 [4]: 2.15 nM

O=C1CN(C(=O)c2cc(Cn3c(=O)[nH]c(=O)c4ccccc43)ccc2F)CCN1CC1CCCCC1
PARP1-DNA trapping activity [5]: Active | IC50 [1]: 2.38 nM | IC50 [2]: 9.39 nM | PF50 [3]: >10 | IC50 [4]: 0.24 nM

O=C(c1cc(Cn2c(=O)[nH]c(=O)c3ccccc32)ccc1F)N1CCN(C2CCCC2)C(=O)C1
PARP1-DNA trapping activity [5]: Active | IC50 [1]: 1.4 nM | IC50 [2]: 13.2 nM | PF50 [3]: >10 | IC50 [4]: 0.29 nM

O=C(c1cc(Cn2c(=O)[nH]c(=O)c3ccccc32)ccc1F)N1CC(=O)N2CCCCC2C1 (configuration not stated)
IC50 [1]: 9.85 nM | IC50 [2]: 32.6 nM | PF50 [3]: >10 | IC50 [4]: 3.41 nM

O=C1CN(C(=O)c2cc(Cn3c(=O)[nH]c(=O)c4ccccc43)ccc2F)CCN1CC1CC1
IC50 [1]: 9.75 nM | IC50 [2]: 14.9 nM | PF50 [3]: >10 | IC50 [4]: 2.63 nM

O=C(c1cc(Cn2c(=O)[nH]c(=O)c3ccccc32)ccc1F)N1CCN(C2CCCCC2)C(=O)C1
IC50 [1]: 2.85 nM | IC50 [2]: 5.79 nM | PF50 [3]: >10 | IC50 [4]: 0.33 nM

CC(C)CCN1CCN(C(=O)c2cc(Cn3c(=O)[nH]c(=O)c4ccccc43)ccc2F)CC1=O
IC50 [1]: 3.03 nM | IC50 [2]: 12.4 nM | PF50 [3]: >10 | IC50 [4]: 0.92 nM

CC(C)N1CCN(C(=O)c2cc(Cn3c(=O)[nH]c(=O)c4ccccc43)ccc2F)CC1=O
IC50 [1]: 5.06 nM | IC50 [2]: 30.9 nM | PF50 [3]: >10 | IC50 [4]: 1.72 nM

C#CCN1CCN(C(=O)c2cc(Cn3c(=O)[nH]c(=O)c4ccccc43)ccc2F)CC1=O
IC50 [1]: 15.5 nM | IC50 [2]: 28.5 nM | PF50 [3]: >10 | IC50 [4]: 2.92 nM

CN(C)CCN1CCN(C(=O)c2cc(Cn3c(=O)[nH]c(=O)c4ccccc43)ccc2F)CC1=O
IC50 [1]: 2.39 nM | IC50 [2]: > 100 nM | IC50 [4]: 6.75 nM

From ChEMBL document CHEMBL5370623, “Discovery of Quinazoline-2,4(1H,3H)-dione Derivatives Containing a Piperizinone Moiety as Potent PARP-1/2 Inhibitors─Design, Synthesis, In Vivo Antitumor Activity, and X-ray Crystal Structure Analysis” (J Med Chem, 2023)
